What was measured:
Canis familiaris [1] = assay: Intestinal clearance in bile duct-cannulated beagle dog at 1 mg/kg, iv administered as 5 mins infusion; assay type: ADME, organism-based, Canis lupus familiaris; set-up: dose 1 mg/kg, route intravenous; conditions: in vivo
[2] = Drug recovery in urine of beagle dog at 1 mg/kg, iv administered as 5 mins infusion measured up to 72 hrs; assay type: ADME, organism-based, Canis lupus familiaris; set-up: dose 1 mg/kg, route intravenous; conditions: read-out: Drug recovery
Rattus norvegicus [3] = assay: Metabolism and biliary clearance in BCRP-knockout Sprague-Dawley rat at 2 mg/kg, iv; assay type: ADME, organism-based, Bile; set-up: dose 2 mg/kg, route intravenous; conditions: in vivo
[4] = Volume of distribution at steady state in wild-type bile duct-cannulated Sprague-Dawley rat at 2 mg/kg, iv; assay type: ADME, organism-based; set-up: dose 2 mg/kg, route intravenous; conditions: in vivo, read-out: Vdss
[5] = Plasma protein binding in beagle dog; assay type: ADME, cell-free, Canis lupus familiaris; conditions: read-out: PPB (converted)
[6] = AUC (0 to infinity) in wild-type bile duct-cannulated Sprague-Dawley rat at 2 mg/kg, iv administered 0.125 hr post GF-120918 treatment; assay type: ADME, organism-based; set-up: time infinity, dose 2 mg/kg, route intravenous; conditions: in vivo, with GF-120918
Rattus norvegicus [7] = assay: Renal clearance in wild-type bile duct-cannulated Sprague-Dawley rat at 2 mg/kg, iv administered 0.125 hr post GF-120918 treatment relative to total clearance; assay type: ADME, organism-based, Kidney; set-up: dose 2 mg/kg, route intravenous; conditions: in vivo
[8] = Drug recovery in urine of bile duct-cannulated beagle dog at 1 mg/kg, iv administered as 5 mins infusion followed by activated charcoal administration 10 to 420 mins post compound measured up to 72 hrs; assay type: ADME, organism-based, Canis lupus familiaris; set-up: dose 1 mg/kg, route intravenous; conditions: read-out: Drug recovery
[9] = Volume of distribution at steady state in wild-type 30 mins activated charcoal pre-treated bile duct-cannulated Sprague-Dawley rat at 2 mg/kg, iv followed by activated charcoal administration 5 to 180 mins post compound dosing; assay type: ADME, organism-based; set-up: dose 2 mg/kg, route intravenous; conditions: in vivo, read-out: Vdss
[10] = Cmax in P-gp-knockout Sprague-Dawley rat at 2 mg/kg, iv; assay type: ADME, organism-based; set-up: dose 2 mg/kg, route intravenous; conditions: in vivo
[11] = Drug recovery in feces of bile duct-cannulated Sprague-Dawley rat at 30 mg/kg, po measured up to 48 hrs; assay type: ADME, organism-based; set-up: dose 30 mg/kg, route oral; conditions: read-out: Drug recovery
[12] = Mean residence time in wild-type bile duct-cannulated Sprague-Dawley rat at 2 mg/kg, iv administered 0.125 hr post GF-120918 treatment; assay type: ADME, organism-based; set-up: dose 2 mg/kg, route intravenous; conditions: in vivo, with GF-120918
[13] = Drug recovery in bile of bile duct-cannulated BCRP-knockout Sprague-Dawley rat at 2 mg/kg, iv measured up to 24 hrs; assay type: ADME, organism-based; set-up: dose 2 mg/kg, route intravenous; conditions: read-out: Drug recovery
Canis familiaris [14] = assay: Intestinal clearance in bile duct-cannulated beagle dog at 1 mg/kg, iv administered as 5 mins infusion relative to total clearance; assay type: ADME, organism-based, Canis lupus familiaris; set-up: dose 1 mg/kg, route intravenous; conditions: in vivo
[15] = Cmax in wild-type bile duct-cannulated Sprague-Dawley rat at 2 mg/kg, iv administered 0.125 hr post GF-120918 treatment; assay type: ADME, organism-based; set-up: dose 2 mg/kg, route intravenous; conditions: in vivo, with GF-120918
Rattus norvegicus [16] = assay: Renal clearance in P-gp-knockout Sprague-Dawley rat at 2 mg/kg, iv relative to total clearance; assay type: ADME, organism-based, Kidney; set-up: dose 2 mg/kg, route intravenous; conditions: in vivo
[17] = Drug recovery in urine of bile duct-cannulated Sprague-Dawley rat at 2 mg/kg, iv administered 1 hr post GF-120918 treatment measured up to 48 hrs; assay type: ADME, organism-based; set-up: dose 2 mg/kg, route intravenous; conditions: with GF-120918, given 1 hr before the compound, read-out: Drug recovery
[18] = Volume of distribution at steady state in bile duct-cannulated beagle dog at 1 mg/kg, iv administered as 5 mins infusion; assay type: ADME, organism-based, Canis lupus familiaris; set-up: dose 1 mg/kg, route intravenous; conditions: in vivo, read-out: Vdss
Rattus norvegicus [19] = assay: Metabolism and biliary clearance in BCRP-knockout Sprague-Dawley rat at 2 mg/kg, iv relative to total clearance; assay type: ADME, organism-based, Bile; set-up: dose 2 mg/kg, route intravenous; conditions: in vivo
[20] = Clearance in wild-type bile duct-cannulated Sprague-Dawley rat at 2 mg/kg, iv; assay type: ADME, organism-based; set-up: dose 2 mg/kg, route intravenous; conditions: in vivo
[21] = Volume of distribution at steady state in P-gp-knockout Sprague-Dawley rat at 2 mg/kg, iv; assay type: ADME, organism-based; set-up: dose 2 mg/kg, route intravenous; conditions: in vivo, read-out: Vdss
Rattus norvegicus [22] = assay: Renal clearance in wild-type bile duct-cannulated Sprague-Dawley rat at 2 mg/kg, iv relative to total clearance; assay type: ADME, organism-based, Kidney; set-up: dose 2 mg/kg, route intravenous; conditions: in vivo
[23] = Drug recovery in feces of 30 mins activated charcoal pre-treated bile duct-cannulated Sprague-Dawley rat at 2 mg/kg, iv followed by activated charcoal administration 5 to 180 mins post compound dosing measured up to 48 hrs; assay type: ADME, organism-based; set-up: dose 2 mg/kg, route intravenous; conditions: read-out: Drug recovery
[24] = Drug recovery in urine of bile duct-cannulated P-gp-knockout Sprague-Dawley rat at 2 mg/kg, iv measured up to 24 hrs; assay type: ADME, organism-based; set-up: dose 2 mg/kg, route intravenous; conditions: read-out: Drug recovery
[25] = Mean residence time in P-gp-knockout Sprague-Dawley rat at 2 mg/kg, iv; assay type: ADME, organism-based; set-up: dose 2 mg/kg, route intravenous; conditions: in vivo
[26] = Plasma protein binding in Sprague-Dawley rat; assay type: ADME, cell-free; conditions: read-out: PPB (converted)
Canis familiaris [27] = assay: Metabolism and biliary clearance in bile duct-cannulated beagle dog at 1 mg/kg, iv administered as 5 mins infusion followed by activated charcoal administration 10 to 420 mins post compound dosing; assay type: ADME, organism-based, Canis lupus familiaris; set-up: dose 1 mg/kg, route intravenous; conditions: in vivo
Rattus norvegicus [28] = assay: Intestinal clearance in BCRP-knockout Sprague-Dawley rat at 2 mg/kg, iv relative to total clearance; assay type: ADME, organism-based; set-up: dose 2 mg/kg, route intravenous; conditions: in vivo
[29] = Volume of distribution at steady state in wild-type bile duct-cannulated Sprague-Dawley rat at 2 mg/kg, iv administered 0.125 hr post GF-120918 treatment; assay type: ADME, organism-based; set-up: dose 2 mg/kg, route intravenous; conditions: in vivo, with GF-120918, read-out: Vdss
Canis familiaris [30] = assay: Clearance in bile duct-cannulated beagle dog at 1 mg/kg, iv administered as 5 mins infusion followed by activated charcoal administration 10 to 420 mins post compound dosing; assay type: ADME, organism-based, Canis lupus familiaris; set-up: dose 1 mg/kg, route intravenous; conditions: in vivo
[31] = Drug recovery in urine of bile duct-cannulated Sprague-Dawley rat at 2 mg/kg, iv measured up to 24 hrs; assay type: ADME, organism-based; set-up: dose 2 mg/kg, route intravenous; conditions: read-out: Drug recovery
[32] = Drug recovery in feces of bile duct-cannulated Sprague-Dawley rat at 2 mg/kg, iv measured up to 24 hrs; assay type: ADME, organism-based; set-up: dose 2 mg/kg, route intravenous; conditions: read-out: Drug recovery
[33] = Drug recovery in urine of beagle dog at 5 mg/kg, po measured up to 72 hrs; assay type: ADME, organism-based, Canis lupus familiaris; set-up: dose 5 mg/kg, route oral; conditions: read-out: Drug recovery
Rattus norvegicus [34] = assay: Metabolism and biliary clearance at 8 hrs in wild-type bile duct-cannulated Sprague-Dawley rat at 2 mg/kg, iv administered 0.125 hr post GF-120918 treatment relative to total clearance; assay type: ADME, organism-based; set-up: dose 2 mg/kg, route intravenous; conditions: in vivo
[35] = Drug recovery in urine of bile duct-cannulated Sprague-Dawley rat at 30 mg/kg, po measured up to 48 hrs; assay type: ADME, organism-based; set-up: dose 30 mg/kg, route oral; conditions: read-out: Drug recovery
Canis familiaris [36] = assay: Metabolism and biliary clearance in bile duct-cannulated beagle dog at 1 mg/kg, iv administered as 5 mins infusion; assay type: ADME, organism-based, Canis lupus familiaris; set-up: dose 1 mg/kg, route intravenous; conditions: in vivo
Rattus norvegicus [37] = assay: Intestinal clearance in wild-type 30 mins activated charcoal pre-treated bile duct-cannulated Sprague-Dawley rat at 2 mg/kg, iv followed by activated charcoal administration 5 to 180 mins post compound dosing; assay type: ADME, organism-based; set-up: dose 2 mg/kg, route intravenous; conditions: in vivo
[38] = Drug recovery in feces of bile duct-cannulated Sprague-Dawley rat at 2 mg/kg, iv administered 1 hr post GF-120918 treatment measured up to 48 hrs; assay type: ADME, organism-based; set-up: dose 2 mg/kg, route intravenous; conditions: with GF-120918, given 1 hr before the compound, read-out: Drug recovery
Rattus norvegicus [39] = assay: Intestinal clearance in P-gp-knockout Sprague-Dawley rat at 2 mg/kg, iv; assay type: ADME, organism-based; set-up: dose 2 mg/kg, route intravenous; conditions: in vivo
[40] = Half life in wild-type bile duct-cannulated Sprague-Dawley rat at 2 mg/kg, iv; assay type: ADME, organism-based; set-up: dose 2 mg/kg, route intravenous; conditions: in vivo
Rattus norvegicus [41] = assay: Intestinal clearance in wild-type bile duct-cannulated Sprague-Dawley rat at 2 mg/kg, iv; assay type: ADME, organism-based; set-up: dose 2 mg/kg, route intravenous; conditions: in vivo
[42] = Mean residence time in bile duct-cannulated beagle dog at 1 mg/kg, iv administered as 5 mins infusion followed by activated charcoal administration 10 to 420 mins post compound dosing; assay type: ADME, organism-based, Canis lupus familiaris; set-up: dose 1 mg/kg, route intravenous; conditions: in vivo
[43] = Cmax in BCRP-knockout Sprague-Dawley rat at 2 mg/kg, iv; assay type: ADME, organism-based; set-up: dose 2 mg/kg, route intravenous; conditions: in vivo
[44] = Drug recovery in feces of Sprague-Dawley rat at 2 mg/kg, iv measured up to 168 hrs; assay type: ADME, organism-based; set-up: dose 2 mg/kg, route intravenous; conditions: read-out: Drug recovery
Rattus norvegicus [45] = assay: Intestinal clearance in wild-type bile duct-cannulated Sprague-Dawley rat at 2 mg/kg, iv administered 0.125 hr post GF-120918 treatment; assay type: ADME, organism-based; set-up: dose 2 mg/kg, route intravenous; conditions: in vivo

CL (Canis familiaris [1]): 0.287 mL/min/kg | dose excreted [2]: 9.9% | CL (Rattus norvegicus [3]): 4.33 mL/min/kg | Vd [4]: 0.9 L/kg | fraction unbound [5]: 0.08 | AUC(0-inf) [6]: 2840 ng·h/mL | CL (Rattus norvegicus [7]): 50% | dose excreted [8]: 8.1% | Vd [9]: 1.2 L/kg | Cmax [10]: 2160 ng/mL | dose excreted at 48 h [11]: 69.8% | MRT [12]: 1.7 h | dose excreted at 24 h [13]: 12.7% | CL (Canis familiaris [14]): 43% | Cmax [15]: 1970 ng/mL | CL (Rattus norvegicus [16]): 43% | dose excreted [17]: 50.6% | Vd [18]: 0.2 L/kg | CL (Rattus norvegicus [19]): 30% | clearance [20]: 23.3 mL/min/kg | Vd [21]: 0.7 L/kg | CL (Rattus norvegicus [22]): 51% | dose excreted [23]: 28.8% | dose excreted at 24 h [24]: 44.3% | MRT [25]: 0.8 h | fraction unbound [26]: 0.04 | CL (Canis familiaris [27]): 0.192 mL/min/kg | CL (Rattus norvegicus [28]): 37% | Vd [29]: 1.6 L/kg | CL (Canis familiaris [30]): 0.833 mL/min/kg | dose excreted at 24 h [31]: 49.5% | dose excreted at 24 h [32]: 21.1% | dose excreted at 72 h [33]: 8.8% | CL (Rattus norvegicus [34]): 36% | dose excreted at 48 h [35]: 10.5% | CL (Canis familiaris [36]): 0.288 mL/min/kg | CL (Rattus norvegicus [37]): 9.17 mL/min/kg | dose excreted [38]: 13.8% | CL (Rattus norvegicus [39]): 3.67 mL/min/kg | half-life [40]: 1.2 h | CL (Rattus norvegicus [41]): 5 mL/min/kg | MRT [42]: 1.9 h | Cmax [43]: 2370 ng/mL | dose excreted at 168 h [44]: 41.1% | CL (Rattus norvegicus [45]): 1.7 mL/min/kg
Structure (SMILES): COc1ccc(-n2nc(C(N)=O)c3c2[14C](=O)N(c2ccc(N4CCCCC4=O)cc2)CC3)cc1

— ChEMBL document CHEMBL3526058, “Investigating the enteroenteric recirculation of apixaban, a factor Xa inhibitor: administration of activated charcoal to bile duct-cannulated rats and dogs receiving an intravenous dose and use of drug transporter knockout rats” (Drug Metab Dispos, 2013)
